# Values quoted from earlier work in paper PMC8491563 (Journal of controlled release : official journal of the …, 2020).
# Test system: CCR2
# Conditions: in conjunction with nab-paclitaxel/gemcitabine, 21 treated patients
smiles,measurement,value
O=C(NCC(=O)N1CC[C@H](N[C@H]2CC[C@@](O)(c3ccc(-c4ncccn4)cn3)CC2)C1)c1cccc(C(F)(F)F)c1 [PF-04136309],patients responding with a reduction in tumor size compared to the baseline,23.8%
